For the data set, the system named is BT474 (HER2+) cell line. The experiment in a line: Standard cellular cytotoxicity assay, BT474 (HER2+) cell line. The class given is cell-based, human. The source says: The cytotoxicity of tubulysins T1 and T2 was compared to the cytotoxicity of MMAF using the BT474 (HER2+) cell line in a standard cellular cytotoxicity assay.

In general, IC50 refers to the concentration that gives 50% inhibition. A low value points to greater potency in that assay.

Read-outs that look alike come from different tables or passages of the source. Where a SMILES comes first, the peptide text is derived from it. [ ]: non-standard residue; d: D form. Dolaproine = CO[C@@H]([C@@H]1CCCN1)[C@@H](C)C(=O)O; Dil = CC[C@H](C)[C@H](NC)[C@@H](CC(=O)O)OC; NMeV = CN[C@H](C(=O)O)C(C)C

`CC[C@H](C)[C@@H]([C@@H](CC(=O)N1CCC[C@H]1[C@H](OC)[C@@H](C)C(=O)N[C@@H](Cc1ccccc1)C(=O)O)OC)N(C)C(=O)[C@@H](NC(=O)[C@@H](NC)C(C)C)C(C)C` [MMAF, monomethylauristatin F] (H-[NMeV]V[Dil][Dolaproine]F-OH) returned an IC50 of 93 nM.
Turning to `CC[C@H](C)[C@H](NC(=O)[C@H]1CCCCN1C)C(=O)N(C)[C@H](C[C@@H](OC(C)=O)c1nc(C(=O)N[C@@H](Cc2ccccc2)C[C@H](C)C(=O)O)cs1)C(C)C` [Entry T2], the IC50 (Homo sapiens, BT-474) is less than 0.1 nM.
In the case of `CC[C@H](C)[C@H](NC(=O)[C@H]1CCCCN1C)C(=O)N(C)[C@H](C[C@@H](OC(C)=O)c1nc(C(=O)O)cs1)C(C)C` [Entry T1], the IC50 (Homo sapiens, BT-474) came to 11 nM.

The values are drawn from patent publication US20140363454A1, “Antibody-Drug Conjugates, Compositions and Methods of Use” (Igenica Biotherapeutics, Inc., priority 2013, published 2014).
